Reference: ChEMBL document CHEMBL3593215, “Design, synthesis and antiproliferative activities of novel benzamides derivatives as HDAC inhibitors” (Eur J Med Chem, 2015)

How the values were obtained:
HCT-116 = assay: Cytotoxicity against human HCT116 cells assessed as inhibition of cell proliferation after 72 hrs by MTT assay; type: functional, cell-based; conditions: HCT-116, 72 h
Histone deacetylase 1 [1] = target: T1, Histone deacetylase 1 (Homo sapiens, UniProt Q13547); assay: Potency index, ratio of MS-275 IC50 to compound IC50 for HDAC1 (unknown origin)
MCF7 = assay: Cytotoxicity against human MCF7 cells assessed as inhibition of cell proliferation after 72 hrs by MTT assay; type: functional, cell-based; conditions: MCF7, 72 h
[2] = Tmax in Sprague-Dawley rat at 25 mg/kg, po; type: ADME, organism-based; conditions: in vivo
[3] = Elimination half life in Sprague-Dawley rat at 25 mg/kg, po; type: ADME, organism-based; conditions: in vivo, read-out: beta t1/2 (converted)
[4] = AUClast in Sprague-Dawley rat at 25 mg/kg, po; type: ADME, organism-based; set-up: dose 25 mg/kg, route oral, time 0 - last; conditions: in vivo
Histone deacetylase 1 [5] = target: T1, Histone deacetylase 1; assay: Inhibition of HDAC1 (unknown origin) preincubated for 5 mins followed by fluorogenic substrate addition measured after 30 mins by microplate reader analysis
[6] = Elimination half life in Sprague-Dawley rat at 5 mg/kg, iv; type: ADME, organism-based; conditions: in vivo, read-out: beta t1/2 (converted)
[7] = Oral bioavailability in Sprague-Dawley rat at 25 mg/kg; type: ADME, organism-based; conditions: in vivo
[8] = AUCinfinity_obs in Sprague-Dawley rat at 25 mg/kg, po; type: ADME, organism-based; set-up: dose 25 mg/kg, time infinity, route oral; conditions: in vivo
A549 [9] = assay: Potency index, ratio of MS-275 IC50 to compound IC50 for human A549 cells; type: functional
A549 [10] = assay: Cytotoxicity against human A549 cells assessed as inhibition of cell proliferation after 72 hrs by MTT assay; type: functional, cell-based; conditions: A549, 72 h

T1 sequence (Q13547 whole entry): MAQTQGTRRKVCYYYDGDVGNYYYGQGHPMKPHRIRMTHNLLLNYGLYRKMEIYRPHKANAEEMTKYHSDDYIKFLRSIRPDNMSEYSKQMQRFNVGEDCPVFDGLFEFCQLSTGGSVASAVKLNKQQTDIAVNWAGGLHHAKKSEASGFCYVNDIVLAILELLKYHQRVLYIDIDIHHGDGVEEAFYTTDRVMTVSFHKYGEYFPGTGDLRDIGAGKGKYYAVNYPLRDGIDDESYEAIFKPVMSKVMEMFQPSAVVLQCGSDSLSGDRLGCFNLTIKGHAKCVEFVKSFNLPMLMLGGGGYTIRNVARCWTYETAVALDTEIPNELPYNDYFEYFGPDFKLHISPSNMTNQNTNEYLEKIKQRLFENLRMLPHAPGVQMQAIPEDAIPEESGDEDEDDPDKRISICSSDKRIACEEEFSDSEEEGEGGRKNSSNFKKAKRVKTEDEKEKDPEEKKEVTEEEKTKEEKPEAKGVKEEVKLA

| Compound | Ratio IC50 (Histone deacetylase 1 [1]) | Tmax [2] [h] | half-life [3] [min] | AUC(0-t) [4] [ng·h/mL] | IC50 (Histone deacetylase 1 [5]) [nM] | half-life [6] [min] | bioavailability [7] [%] | AUC(0-inf) [8] [ng·h/mL] | IC50 (HCT-116) [nM] | IC50 (MCF7) [µM] | Ratio IC50 (A549 [9]) | IC50 (A549 [10]) [nM] |
| --- | --- | --- | --- | --- | --- | --- | --- | --- | --- | --- | --- | --- |
| Nc1ccccc1NC(=O)c1ccc(CNC(=O)/C=C/c2cnc3cccnn23)cc1 | 2 | 1.17 | 493 | 6780 | 118 | 112 | 76 | 8610 | 1260 | 2.87 | 5 | 723 |
| Cc1nc2ccccn2c1/C=C/C(=O)NCCc1ccc(C(=O)Nc2ccccc2N)cc1 | – | – | – | – | 178 | – | – | – | 1960 | 6.8 | – | 1460 |
| Nc1ccccc1NC(=O)c1ccc(CCNC(=O)/C=C/c2cnc3cccnn23)cc1 | – | – | – | – | 154 | – | – | – | 2300 | 4.67 | – | 1150 |
| Nc1ccc(F)cc1NC(=O)c1ccc(CNC(=O)/C=C/c2cnc3cccnn23)cc1 | – | – | – | – | 137 | – | – | – | 4290 | 11 | – | 812 |
| Nc1ccccc1NC(=O)c1ccc(CNC(=O)/C=C/c2c[nH]c3ccccc23)cc1 | 2 | – | – | – | 120 | – | – | – | 1220 | 2.92 | – | 649 |
| Nc1ccccc1NC(=O)c1ccc(CCNC(=O)/C=C/c2cnc3ccccn23)cc1 | – | – | – | – | 217 | – | – | – | 4500 | 9.44 | – | 1470 |
| Nc1ccccc1NC(=O)c1ccc(CNC(=O)OCc2cccnc2)cc1 [ENTINOSTAT] | – | – | – | – | – | – | – | – | 5100 | 7.88 | – | 3130 |

Continued by falling IC50 (Histone deacetylase 1 [5]), values first:

| Ratio IC50 (Histone deacetylase 1 [1]) | Tmax [2] [h] | half-life [3] [min] | AUC(0-t) [4] [ng·h/mL] | IC50 (Histone deacetylase 1 [5]) [nM] | half-life [6] [min] | bioavailability [7] [%] | AUC(0-inf) [8] [ng·h/mL] | Compound | IC50 (HCT-116) [nM] | IC50 (MCF7) [µM] | Ratio IC50 (A549 [9]) | IC50 (A549 [10]) [nM] |
| --- | --- | --- | --- | --- | --- | --- | --- | --- | --- | --- | --- | --- |
| – | – | – | – | 173 | – | – | – | Cc1nc2ccccn2c1/C=C/C(=O)NCc1ccc(C(=O)Nc2ccccc2N)cc1 | 1430 | 6.22 | – | 1300 |
| – | – | – | – | 169 | – | – | – | Nc1ccccc1NC(=O)c1ccc(CCNC(=O)/C=C/c2c[nH]c3ccccc23)cc1 | 1570 | 5.02 | – | 1280 |
| – | – | – | – | 131 | – | – | – | Nc1cc(F)ccc1NC(=O)c1ccc(CNC(=O)/C=C/c2cnc3cccnn23)cc1 | 2260 | 5.51 | – | 791 |
| – | – | – | – | 129 | – | – | – | Nc1ccccc1NC(=O)c1ccc(CNC(=O)/C=C/c2cnc3ccccn23)cc1 | 2300 | 4.13 | – | 832 |
